# Key:
# Mrp2 = test: Immunoblot analysis of Mrp2 expression in siRNA-treated SCRH; assay type: cell-based, rat; details: vs siFL-transfected and non-transfected cells
# Method: (§1) HepG2 cells were maintained in Dulbecco's modified Eagle's medium/F-12 plus 10% FBS. Rat hepatocytes were isolated from male Wistar rats (220-300g) by in situ collagenase perfusion (Annaert et al., Drug Metab Dispos 29:1277-1283, 2001). Cells were seeded at a density of 1.5×10^6 cells per well onto polystyrene 6-well plates pre-coated with rat tail type I collagen; a top layer of gelled collagen was overlaid 24 hr after plating. Rat hepatocyte cultures were maintained in Dulbecco's modified Eagle's medium supplemented with 0.1 μM dexamethasone and 0.1% ITS culture supplement (6.25 mg/mL insulin, 6.25 mg/mL transferrin, 6.25 μg/mL selenous acid, 5.35 mg/mL linoleic acid, and […]). Medium was changed every 24 hr.
# (§2) HepG2 cells were seeded at a density of 2×10^5 cells per well onto 12-well plates 24 hr before transfection. A mixture of 100 ng firefly luciferase expression plasmid (PGL3-FL) and 100 ng Renilla luciferase expression plasmid (PRL-TK) and various amounts of firefly luciferase siRNA were used per well. Transfections of SCRH were performed at 20 hr after plating, unless specifically indicated. siRNA (2 μg unless specified) was used per well in 6-well plates. siRNA and DNA were formulated for transfection using […]™ transfection reaction kit (QIAGEN Inc. Valencia, Calif. USA). Briefly, siRNA was condensed in Enhancer EC at a ratio of 1:2 (μg of total RNA and/or DNA : μl of Enhancer), and formulated with TransMessenger at a ratio of 1:4 (μg of RNA and /or DNA: μl of TransMessenger) and then incubated with cells. For transfections of HepG2 cells, medium was changed after an overnight incubation with siRNA. For transfections of SCRH, cells were incubated with siRNA for 4 hr and then were overlaid with collagen. siRNA delivery into hepatocytes was more efficient before overlay of the top collagen layer. The effect of transfection was examined 48 hr later.
# (§3) Cells were harvested 48 hr post transfection and lysed in 1% SDS, 1 mM EDTA plus COMPLETE™ protease inhibitor cocktail (Roche Diagnostics, Mannheim, Germany). The protein concentration of the clear cell lysate was determined with the BCA Protein Assay Reagent Kit (Pierce Biotech, Inc. Rockford, Ill.). […] of total protein per lane was resolved by electrophoresis on NuPAGE 4-12% Bis-Tris Gel (Invitrogen Life Technology, Carlsbad, Calif. USA) and were transferred onto polyvinylidone difluoride membranes. The following antibodies were used to probe the membranes: anti-Mrp2 (M2111-6, Alexis Biochemicals, San Diego, Calif. USA); anti-Mrp3 (kind gift from Dr. Yuichi Sugiyama); anti-Radixin (Chemicon International, Inc. Temecula, Calif. USA), anti-β-actin (MAB1501, Chemicon).
# Mrp3 [1] = test: Immunoblot analysis of Mrp3 expression in siRNA-treated SCRH; assay type: cell-based, rat; details: vs siFL-transfected and non-transfected cells
# Method: as §1, §2, §3
# SCRH = test: Lactate dehydrogenase activity assay of culture medium of SCRH; assay type: cell-based, rat; details: after three days in culture, mean±SEM
# Method: Prior to the functional studies, cell culture medium was assayed for lactate dehydrogenase activity, an intracellular enzyme whose leakage into extracellular medium is inversely related to cell viability. Lactate dehydrogenase activity was assayed with kit 500-C (Sigma Diagnostics, St. Louis, Mo. USA) utilizing lactate dehydrogenase-catalyzed reduction of pyruvate to lactate, subsequent conjugation of remaining pyruvate with 2,4-dinitrophenylhydrazine, and spectrophotometric detection (λ=500 nm) of the pyruvate-2,4-dinitrophenylhydrazone conjugate at alkaline pH (Cabaud and Wroblewski, Am. J. Clin. Pathol. 30:234-236,1958).
# Mrp3 [2] = molecular target: T1, Mrp3 (Rattus norvegicus, UniProt O88563); test: Assessment of Mrp3 function with CDF disposition in siMrp3-treated SCRH (30 min washout); assay type: cell-based
# T1 construct: endogenous in cells; host or cells: sandwich-cultured primary hepatocytes of male Wistar rats
# T1 sequence (O88563 whole entry): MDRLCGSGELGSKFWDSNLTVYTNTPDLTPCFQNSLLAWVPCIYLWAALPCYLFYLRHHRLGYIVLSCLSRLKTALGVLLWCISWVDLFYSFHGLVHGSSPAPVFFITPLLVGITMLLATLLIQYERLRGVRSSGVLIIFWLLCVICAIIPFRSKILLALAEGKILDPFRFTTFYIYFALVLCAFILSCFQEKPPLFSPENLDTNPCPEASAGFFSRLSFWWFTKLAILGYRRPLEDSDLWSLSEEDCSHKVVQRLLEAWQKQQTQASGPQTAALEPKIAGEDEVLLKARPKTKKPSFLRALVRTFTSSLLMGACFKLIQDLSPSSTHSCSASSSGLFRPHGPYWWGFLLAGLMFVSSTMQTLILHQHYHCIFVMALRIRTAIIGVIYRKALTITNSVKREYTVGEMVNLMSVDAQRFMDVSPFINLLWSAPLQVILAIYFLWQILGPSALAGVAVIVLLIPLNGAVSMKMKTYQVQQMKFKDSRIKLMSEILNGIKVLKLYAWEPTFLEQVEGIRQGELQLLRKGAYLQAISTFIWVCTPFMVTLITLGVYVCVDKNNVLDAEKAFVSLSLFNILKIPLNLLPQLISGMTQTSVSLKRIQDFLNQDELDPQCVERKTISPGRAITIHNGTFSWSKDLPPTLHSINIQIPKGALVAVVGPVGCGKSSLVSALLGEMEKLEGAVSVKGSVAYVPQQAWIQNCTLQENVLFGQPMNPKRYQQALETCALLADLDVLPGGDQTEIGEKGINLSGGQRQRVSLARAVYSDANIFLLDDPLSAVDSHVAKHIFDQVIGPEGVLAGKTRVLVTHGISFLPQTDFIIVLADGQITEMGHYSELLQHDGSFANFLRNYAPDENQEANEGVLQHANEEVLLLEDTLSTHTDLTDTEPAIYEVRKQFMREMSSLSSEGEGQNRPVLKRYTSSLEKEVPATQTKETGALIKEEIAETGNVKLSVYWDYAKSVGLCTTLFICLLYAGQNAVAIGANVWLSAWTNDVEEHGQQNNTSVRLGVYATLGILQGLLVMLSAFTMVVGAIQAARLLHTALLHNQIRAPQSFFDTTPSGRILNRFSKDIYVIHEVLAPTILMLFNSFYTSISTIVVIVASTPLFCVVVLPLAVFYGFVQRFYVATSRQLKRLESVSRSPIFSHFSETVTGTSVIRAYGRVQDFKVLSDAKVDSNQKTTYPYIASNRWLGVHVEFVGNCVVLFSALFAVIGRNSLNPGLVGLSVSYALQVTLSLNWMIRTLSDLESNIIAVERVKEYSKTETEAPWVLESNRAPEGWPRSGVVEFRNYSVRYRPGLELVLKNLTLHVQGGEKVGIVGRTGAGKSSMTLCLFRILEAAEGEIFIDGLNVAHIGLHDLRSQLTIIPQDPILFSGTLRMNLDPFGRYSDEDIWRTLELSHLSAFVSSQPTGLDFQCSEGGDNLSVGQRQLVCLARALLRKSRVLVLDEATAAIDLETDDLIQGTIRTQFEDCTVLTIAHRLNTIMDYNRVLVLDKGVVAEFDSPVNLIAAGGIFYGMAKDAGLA
# Method: Cells were rinsed twice with Hanks' balanced salt solution (HBSS, 2 mL, 37° C.) and incubated (10 min, 1.5 mL, 37° C.) with 2 μM CDF diacetate (Molecular Probes, Eugene, Oreg. USA), and were then rinsed twice with cold HBSS (2 mL, 4° C.). Cell images were taken with a Axiovert 100TV inverted microscope. Accumulation of CDF in cells+bile canaliculi and cells only was assessed in SCRH pre-incubated (10 min, 2 mL, 37° C.) with standard HBSS and Ca^2+-free HBSS, respectively (Liu et al., J. Pharmacol. Exp. Ther. 289:1592-1599, 1999). SCRH were subsequently incubated with CDF diacetate (10 min, 2 mL, 37° C.). In siMrp2-treated SCRH, cells were then rinsed four times with cold HBSS (2 mL, 4° C.) and lysed (1 mL, 0.5% TritonX-100 in phosphate-buffered saline). In siMrp3-treated SCRH, following incubation with CDF diacetate, cells were rinsed four times with warm HBSS (2 mL, 37° C.) and were incubated with HBSS (30 min, HBSS changed every 10 min, 2 mL, 37° C.) to allow time for intracellular CDF to undergo appreciable basolateral excretion prior to rinsing the SCRH four times with cold HBSS and lysing the cells (as above). CDF fluorescence in lysate was quantified with fluorescence spectrophotometry (λex=485 nm, λem=[…]); protein concentration was determined with the BCA method kit (as above).
substance,measurement,setting,value
"siMrp3: siRNA targeting rat Mrp3, GGUCCAAGGACCUGCCUCCCA (SEQ ID NO: 6), nucleotides 1950-1970 of Mrp3 cDNA (listed as RNA, chemistry not given here)",expression of Mrp2 (in words),Mrp2,no change in expression of Mrp2
same,Mrp3 protein expression (in words),Mrp3 [1],a decrease in Mrp3 protein expression
same,lactate dehydrogenase activity,SCRH,87±3 % non-transfected control SCRH
same,increase of biliary excretion index of CDF,"Mrp3 [2]; transfected SCRH, after 30 min washout, vs control",~60%
same,biliary excretion index of CDF,"Mrp3 [2]; transfected SCRH, after 30 min washout, control 36.2%",57.5%
same,CDF accumulation in cells only,"Mrp3 [2]; transfected SCRH, after 30 min washout, non-transfected control 15.6±4.0",13.7±2.2 pmol/mg protein/10 min
same,CDF accumulation in cells+bile canaliculi,"Mrp3 [2]; transfected SCRH, after 30 min washout, non-transfected control 24.4±4.3",32.3±2.5 pmol/mg protein/10 min
same,CDF fluorescence in canalicular networks (in words),Mrp3 [2]; vs siFL-transfected or non-transfected cells,more intense
